Reference: publication PMC11267548 (JACS Au, 2024)

Biological target: T1, ScGPUT (Solitalea canadensis, UniProt H8KMA8)
T1 sequence (H8KMA8 1-293): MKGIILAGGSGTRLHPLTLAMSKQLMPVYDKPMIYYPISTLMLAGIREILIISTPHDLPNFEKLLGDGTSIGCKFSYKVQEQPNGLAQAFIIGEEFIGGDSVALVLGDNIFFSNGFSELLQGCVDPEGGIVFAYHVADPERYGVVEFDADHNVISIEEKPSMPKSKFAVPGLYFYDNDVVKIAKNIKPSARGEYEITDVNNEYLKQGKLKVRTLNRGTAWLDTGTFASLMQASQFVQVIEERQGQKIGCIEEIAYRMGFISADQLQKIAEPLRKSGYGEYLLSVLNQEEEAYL
Assay: conversion of xylose-1-phosphate to UDP-xylose, TLC
Assay type: biochemical
Conditions: read-out: % inhibition at 10 mM

Compound | inhibition at 10000 µM
Nc1ncnc2c1ncn2[C@@H]1O[C@H](COP(=O)(O)OP(=O)(O)O)[C@@H](O)[C@H]1O [ADP] | > 50%
Nc1ncnc2c1ncn2[C@@H]1O[C@H](COP(=O)(O)OP(=O)(O)OP(=O)(O)O)[C@@H](O)[C@H]1O [ATP] | > 50%
